Measured values taken from patent US10208059B2, “Heterocyclic modulators of HIF activity for treatment of disease” (Board of Regents, University of Texas System, priority 2012, dated 2019).
Where a name gives a salt, the structure may show the parent alone.

What follows are compounds tested on 293T-HRE-GFP-luc cells (assay: Cell-based reporter assay for IC50 determinations). Conditions: hypoxia 6 hrs (1% O2), luminescence, read-out: IC50 Classification.
Method: Cell-Based Reporter Assay for IC50 Determinations
293T-HRE-GFP-luc cells were routinely maintained in DMEM media (high glucose version with GlutaMAX and HEPES, Gibco, catalog #10564) supplemented with 10% fetal bovine serum and 2 μg/mL puromycin (Invitrogen, catalog #A11138-03) using a humidified incubator (normoxia conditions consisting of 37° C., 5% CO2 and ambient O2).
In preparation for the reporter assay, cells were harvested and resuspended in DMEM media (high glucose version with GlutaMAX and HEPES) supplemented with 10% fetal bovine serum. Cells were inoculated into 384-well white Culturplates (Perkin Elmer catalog #6007680) at a density of 12,000 cells/well in a volume of 30 μL. The microplates were incubated overnight (approximately 17-19 hours) at 37° C. with 5% CO2 and ambient O2. Stock solutions of the test compounds were prepared in DMSO (Sigma, Catalog #D2650) and serially diluted 1:3 using DMSO. Compounds were additionally diluted (1:50) with culturemedium and 10 μL were added per well to the Culturplate. Following a 30 min. incubation under normoxia conditions, the plates were incubated in hypoxia for 6 hrs. (37° C., 5% CO2 and 1% O2). Steadylite Plus (Perkin Elmer, catalog #6016751) was then added (40 μL/well), the plates were mixed on an orbital shaker at room temperature in the dark for 15 min., and luminescence was measured using an Envision plate reader (Perkin Elmer). IC50 values were calculated using a four-parameter logistic curve fit. Results are shown below in Table 2; ND indicates no data.

| SMILES | IC50 [nM] |
| --- | --- |
| Cc1nc(-c2nc(-c3ccc(OC(F)(F)F)cc3)no2)nn1Cc1cccc(OC2COC2)c1 [Example 68, 5-(5-Methyl-1-{[3-(oxetan-3-yloxy)phenyl]methyl}-1H-1,2,4-triazol-3-yl)-3-[4-(trifluoromethoxy)phenyl]-1,2,4-oxadiazole] | < 100 |
| Cc1ccc(Cn2nc(-c3nc(-c4ccc(OC(F)(F)F)cc4)cs3)nc2C)cc1 [Example 149, 5-methyl-1-[(4-methylphenyl)methyl]-3-{4-[4-(trifluoromethoxy)phenyl]-1,3-thiazol-2-yl}-1H-1,2,4-triazole] | < 100 |
| Cc1nc(-c2nc(-c3ccc(OC(F)(F)F)cc3)no2)nn1Cc1cccc(OC(F)F)c1 [Example 103, 5-(1-(3-(difluoromethoxy)benzyl)-5-methyl-1H-1,2,4-triazol-3-yl)-3-(4-(trifluoromethoxy)phenyl)-1,2,4-oxadiazole] | 100 to 1000 |
| Cc1nc(-c2nc(-c3ccc(OC(F)(F)F)cc3)no2)nn1Cc1ccc(C(C)C)cc1 [Example 109, 5-(1-(4-isopropylbenzyl)-5-methyl-1H-1,2,4-triazol-3-yl)-3-(4-(trifluoromethoxy)phenyl)-1,2,4-oxadiazole] | 100 to 1000 |
| Cc1nc(-c2nc(-c3ccc(OC(F)(F)F)cc3)cs2)nn1Cc1ccnc(N2CCN(C)CC2)c1 [Example 87, 1-Methyl-4-{4-[(5-methyl-3-{4-[4-(trifluoromethoxy)phenyl]-1,3-thiazol-2-yl}-1H-1,2,4-triazol-1-yl)methyl]pyridin-2-yl}piperazine] | < 100 |
| Cc1nc(-c2nnc(-c3ccc(OC(F)(F)F)cc3)o2)nn1Cc1cccc(N2CCN(C)CC2)c1 [Example 6, 1-Methyl-4-(3-((5-methyl-3-(5-(4-(trifluoromethoxy)phenyl)-1,3,4-oxadiazol-2-yl)-1H-1,2,4-triazol-1-yl)methyl)phenyl)piperazin-1-ium trifluoroacetate] | < 100 |
| Cc1nc(-c2nc(-c3ccc(OC(F)(F)F)cc3)cs2)nn1Cc1cccc(C(=O)N(C)C)c1 [Example 89, N,N-Dimethyl-3-[(5-methyl-3-{4-[4-(trifluoromethoxy)phenyl]-1,3-thiazol-2-yl}-1H-1,2,4-triazol-1-yl)methyl]benzamide] | 100 to 1000 |
| Cc1nc(-c2nc(-c3ccc(OC(F)(F)F)cc3)no2)nn1Cc1cccc(C(N)=O)c1 [Example 118, 3-((5-methyl-3-(3-(4-(trifluoromethoxy)phenyl)-1,2,4-oxadiazol-5-yl)-1H-1,2,4-triazol-1-yl)methyl)benzamide] | < 100 |
| Cc1nc(-c2nc(-c3ccc(OC(F)(F)F)cc3)cs2)nn1Cc1cccc(N2CCN(C)CC2)c1 [Example 148, 1-methyl-4-{3-[(5-methyl-3-{4-[4-(trifluoromethoxy)phenyl]-1,3-thiazol-2-yl}-1H-1,2,4-triazol-1-yl)methyl]phenyl}piperazine] | < 100 |
| COC(C)(C)CCOc1cccc(Cn2nc(-c3nc(-c4ccc(OC(F)(F)F)cc4)no3)nc2C)c1 [Example 72, 5-(1-{[3-(3-Methoxy-3-methylbutoxy)phenyl]methyl}-5-methyl-1H-1,2,4-triazol-3-yl)-3-[4-(trifluoromethoxy)phenyl]-1,2,4-oxadiazole] | < 100 |
| Cc1nc(-c2nc(-c3ccc(OC(F)(F)F)cc3)no2)nn1Cc1cccc(N2CCNCC2)c1 [Example 81, 1-{3-[(5-Methyl-3-{3-[4-(trifluoromethoxy)phenyl]-1,2,4-oxadiazol-5-yl}-1H-1,2,4-triazol-1-yl)methyl]phenyl}piperazine] | < 100 |
| Cc1nc(-c2nc(-c3ccc(OC(F)(F)F)cc3)no2)nn1Cc1ccnc(N(C)C)c1 [Example 37, N,N-Dimethyl-4-((5-methyl-3-(3-(4-(trifluoromethoxy)phenyl)-1,2,4-oxadiazol-5-yl)-1H-1,2,4-triazol-1-yl)methyl)pyridin-2-amine] | < 100 |
| Cc1nc(-c2nc(-c3ccc(S(C)(=O)=O)cc3)no2)nn1Cc1ccnc(N2CCN(C)CC2)c1 [Example 21, 1-Methyl-4-(4-((5-methyl-3-(3-(4-(methylsulfonyl)phenyl)-1,2,4-oxadiazol-5-yl)-1H-1,2,4-triazol-1-yl)methyl)pyridin-1-ium-2-yl)piperazin-1-ium bis-trifluoroacetate] | 1000 to 10000 |
| Cc1nc(-c2nc(-c3ccc(OC(F)(F)F)cc3)no2)nn1Cc1cccc(C(O)CO)c1 (stereo not shown) [Example 85, 1-{3-[(5-Methyl-3-{3-[4-(trifluoromethoxy)phenyl]-1,2,4-oxadiazol-5-yl}-1H-1,2,4-triazol-1-yl)methyl]phenyl}ethane-1,2-diol] | < 100 |
| Cc1nc(-c2nc(-c3ccc(OC(F)(F)F)cc3)no2)nn1Cc1cccc(OCC#N)c1 [Example 66, 2-{3-[(5-Methyl-3-{3-[4-(trifluoromethoxy)phenyl]-1,2,4-oxadiazol-5-yl}-1H-1,2,4-triazol-1-yl)methyl]phenoxy}acetonitrile] | 100 to 1000 |
| Cc1nc(-c2cc(-c3ccc(OC(F)(F)F)cc3)no2)nn1Cc1cccc(N2CCC(S(C)(=O)=O)CC2)c1 [Example 94, 5-(5-Methyl-1-(3-(4-(methylsulfonyl)piperidin-1-yl)benzyl)-1H-1,2,4-triazol-3-yl)-3-(4-(trifluoromethoxy)phenyl)isoxazole] | < 100 |
| Cc1nc(-c2ncc(-c3ccc(OC(F)(F)F)cc3)o2)nn1Cc1cccc(N2CCN(C)CC2)c1 [Example 152, 1-methyl-4-{3-[(5-methyl-3-{5-[4-(trifluoromethoxy)phenyl]-1,3-oxazol-2-yl}-1H-1,2,4-triazol-1-yl)methyl]phenyl}piperazine] | < 100 |
| Cc1nc(-c2cc(-c3ccc(OC(F)(F)F)cc3)on2)nn1Cc1ccnc(N2CCC(S(C)(=O)=O)CC2)c1 [Example 97, 3-(5-Methyl-1-((2-(4-(methylsulfonyl)piperidin-1-yl)pyridin-4-yl)methyl)-1H-1,2,4-triazol-3-yl)-5-(4-(trifluoromethoxy)phenyl)isoxazole] | 100 to 1000 |
| Cc1nc(-c2nc(-c3ccc(OC(F)(F)F)cc3)no2)nn1Cc1cccc(C(=O)N2CC(O)C2)c1 [Example 123, 1-{3-[(5-methyl-3-{3-[4-(trifluoromethoxy)phenyl]-1,2,4-oxadiazol-5-yl}-1H-1,2,4-triazol-1-yl)methyl]benzoyl}azetidin-3-ol] | < 100 |
| FC(F)(F)Oc1ccc(-c2noc(-c3nc(-c4cccnc4)n(Cc4ccccc4)n3)n2)cc1 [Example 4, 3-(1-Benzyl-3-(3-(4-(trifluoromethoxy)phenyl)-1,2,4-oxadiazol-5-yl)-1H-1,2,4-triazol-5-yl)pyridin-1-ium trifluoroacetate] | < 100 |
| Cc1nc(-c2nc(-c3ccc(OC(F)(F)F)cc3)no2)nn1Cc1cccc(C(=O)NC(C)(C)CO)c1 [Example 125, N-(1-hydroxy-2-methylpropan-2-yl)-3-[(5-methyl-3-{3-[4-(trifluoromethoxy)phenyl]-1,2,4-oxadiazol-5-yl}-1H-1,2,4-triazol-1-yl)methyl]benzamide] | < 100 |
| Cc1nc(-c2nc(-c3ccc(OC(F)(F)F)cc3)no2)nn1Cc1cccc(OCCCS(C)(=O)=O)c1 [Example 144, 5-(1-([3-(3-methanesulfonylpropoxy)phenyl]methyl)-5-methyl-1H-1,2,4-triazol-3-yl)-3-[4-(trifluoromethoxy)phenyl]-1,2,4-oxadiazole] | < 100 |
| Cc1nc(-c2nc(-c3ccc(OC(F)(F)F)cc3)no2)nn1Cc1cnccn1 [Example 54, 5-(5-Methyl-1-(pyrazin-2-ylmethyl)-1H-1,2,4-triazol-3-yl)-3-(4-(trifluoromethoxy)phenyl)-1,2,4-oxadiazole] | 1000 to 10000 |
| COCCCn1ccc(Cn2nc(-c3nc(-c4ccc(OC(F)(F)F)cc4)no3)nc2C)cc1=O [Example 142, 1-(3-methoxypropyl)-4-[(5-methyl-3-{3-[4-(trifluoromethoxy)phenyl]-1,2,4-oxadiazol-5-yl}-1H-1,2,4-triazol-1-yl)methyl]-1,2-dihydropyridin-2-one] | 100 to 1000 |
| Cc1nc(-c2nc(-c3ccc(OC(F)(F)F)cc3)no2)nn1Cc1cccc(N)c1 [Example 78, 3-[(5-Methyl-3-{3-[4-(trifluoromethoxy)phenyl]-1,2,4-oxadiazol-5-yl}-1H-1,2,4-triazol-1-yl)methyl]aniline] | < 100 |
| COC(=O)[C@@H](NS(=O)(=O)c1cccc(Cn2nc(-c3nc(-c4ccc(OC(F)(F)F)cc4)no3)nc2C)c1)C(C)C [Example 132, methyl (2S)-3-methyl-2-{3-[(5-methyl-3-{3-[4-(trifluoromethoxy)phenyl]-1,2,4-oxadiazol-5-yl}-1H-1,2,4-triazol-1-yl)methyl]benzenesulfonamido}butanoate] | 100 to 1000 |
| Cc1nc(-c2nc(-c3ccc(OC(F)(F)F)cc3)no2)nn1Cc1cccc(N2CCCS2(=O)=O)c1 [Example 147, 2-(3-((5-methyl-3-(3-(4-(trifluoromethoxy)phenyl)-1,2,4-oxadiazol-5-yl)-1H-1,2,4-triazol-1-yl)methyl)phenyl)isothiazolidine 1,1-dioxide] | < 100 |
| COCCCNc1cc(Cn2nc(-c3nc(-c4ccc(OC(F)(F)F)cc4)no3)nc2C)ccn1 [Example 32, N-(3-Methoxypropyl)-4-((5-methyl-3-(3-(4-(trifluoromethoxy)phenyl)-1,2,4-oxadiazol-5-yl)-1H-1,2,4-triazol-1-yl)methyl)pyridin-2-amine] | < 100 |
